Patent US20200093932A1, “TREATMENT OF CANCER” (BlueLink Pharmaceuticals, Inc., priority 2016, published 2020)

Assays:
Format in all cases: in vivo
[1] = tested on: B16.F10 mouse melanoma tumor model; experiment: Example 1: CRLX101 with NLG-919 analog or INCB-024360 analog, tumor growth inhibition and delay
Procedure: On Day 1, B16.F10 cells, passage 3, were suspended in DMEM (Dulbecco's Modified Eagle Medium) and implanted subcutaneously (SC) in mice. […] The dose was 100 mg/kg administered PO twice every day with a dose volume of 10 mL/kg for 14 days, from Day 7 to Day 20 post tumor implantation as a monotherapy and in combination with CRLX101
(§1) Tumor volumes were measured 3 times every week using the equation (width*width*length)/2, in mm^3. Tumor growth inhibition (TGI) was determined by comparing the mean tumor volume of the treated group with the mean tumor volume of the control group, as the decrease in tumor volume of the treated group as a percent of total tumor volume of the control group. The equation to calculate TGI is (1-(treated volume/control volume))*100.
(§2) Tumor growth delay (TGD) was determined as the number of days between when the control group reached the tumor volume endpoint and when the treated group reached the tumor volume endpoint.

[2] = tested on: B16.F10 mouse melanoma tumor model; experiment: Example 4: CRLX101 + NLG-919 analog versus Irinotecan + NLG-919 analog, tumor growth inhibition and delay; settings: for Inhibit tumor growth?: B16.F10 SC tumors in mice, CRLX101 6 mg/kg IV q7dx2 (Day 6, 13), NLG-919 analog 12.5 mg/kg IP bid Day 6-19, Irinotecan 100 mg/kg q7dx2 (Day 6, 13); for TGI vs. Control (%): same dosing, relative to vehicle control
Procedure: On Day 1, B16.F10 cells, passage 3, were suspended in DMEM (Dulbecco's Modified Eagle Medium) and implanted subcutaneously (SC) in mice. […] The dose was 100 mg/kg q7dx2, i.e., administered at a dose volume of 10 mL/kg on Day 6 and Day 13 post tumor implantation as a monotherapy and in combination.
as §1, §2

[3] = tested on: B16.F10 mouse melanoma tumor model; experiment: Example 5: CRLX101 + NLG-919 analog versus anti-PD-1 antibody + NLG-919 analog, tumor growth inhibition and delay
Procedure: On Day 1, B16.F10 cells, passage 3, were suspended in DMEM (Dulbecco's Modified Eagle Medium) and implanted subcutaneously (SC) in mice.
as §1, with “(1−(treated” for “(1-(treated”
as §2

[4] = tested on: B16.F10 mouse melanoma tumor model; experiment: Example 2: CRLX101 with INCB-024360, tumor growth inhibition and delay
Procedure: On Day 1, B16.F10 cells, passage 5, were suspended in DMEM (Dulbecco's Modified Eagle Medium) and implanted subcutaneously (SC) in mice. When the mean tumor volume reached 60 mm^3, the mice were randomized into study groups and given one of the following treatments: • a control vehicle (20% DMSO/7.5% propylene glycol/5% Tween 80/67.5% PBS) administered IP bid for 13 days, from Day 5 to Day 17, with a dose volume of 10 mL/kg • CRLX101 administered IV at 6 mg/kg q7dx2, i.e. on Day 5 and Day 12 at a dose volume of 10 mL/kg as monotherapy and in combination • INCB-024360 (lot #01, SelleckChem, Houston, Tex.) 10 mg/mL in 20% DMSO/[…]/5% Tween 80/67.5% PBS. The dose was 100 mg/kg administered PO twice every day with a dose volume of 10 mL/kg for 13 days, from Day 5 to […] post tumor implantation as a monotherapy and in combination with CRLX101
as §1, §2

[5] = tested on: B16.F10 mouse melanoma tumor model; experiment: Example 3: CRLX101 with Indoximod, tumor growth inhibition and delay
Procedure: On Day 1, B16.F10 cells, passage 2, were suspended in DMEM (Dulbecco's Modified Eagle Medium) and implanted subcutaneously (SC) in mice. When the mean tumor volume reached 69 mm^3, the mice were randomized into study groups and given one of the following treatments: • a control vehicle (drinking water with the sweetening agent Equal™ added (2 g/L)) was included in the study from Day 7 to Day 19 post tumor implantation. • CRLX101 administered IV at 6 mg/kg q7dx2, i.e. on Day 7 and Day 14 at a dose volume of 10 mL/kg as monotherapy and in combination. • Indoximod (lot # MKBQ8091V, Sigma-Aldrich) was administered in the drinking water at a concentration of 2 mg/mL from Day 7 to Day 19 post tumor implantation as a monotherapy and in combination with CRLX101. The water had Equal™ added (2 g/L).
Tumor volumes were measured 3 times every week using the equation (width*width*length)/2, in mm^3. The endpoint for tumor volume was 2000 mm^3. Tumor growth inhibition (TGI) was determined by comparing the mean tumor volume of the treated group with the mean tumor volume of the control group, as the decrease in tumor volume of the treated group as a percent of total tumor volume of the control group. […]
as §2

[6] = same dosing, vs vehicle when the control group reached the tumor volume endpoint

OC(CC1c2ccccc2-c2cncn21)C1CCCCC1 (stereo not shown) [NLG-919 analog]
Inhibit tumor growth? ([1]; B16.F10 SC tumors in mice, CRLX101 6 mg/kg IV q7dx2 (Day 7, 14), NLG-919 analog 12.5 mg/kg IP bid Day 7-20, INCB-024360 analog 100 mg/kg PO bid Day 7-20): No
TGI vs. Control (%) ([1]; same dosing, mean tumor volume vs vehicle when the control group reached the tumor volume endpoint): 23%
Inhibit tumor growth? [2]: did not inhibit tumor growth and No
TGI vs. Control (%) [2]: 5%
Inhibit tumor growth? ([3]; B16.F10 SC tumors in mice, CRLX101 6 mg/kg IV q7dx2 (Day 6, 13), NLG-919 analog 12.5 mg/kg IP bid Day 6-19, anti-mouse PD-1 antibody 200 μg per mouse IP Day 6, 9, 13, 16): did not inhibit tumor growth and No
TGI vs. Control (%) [3, 6]: 15%

CCc1c2c(nc3ccc(OC(=O)N4CCC(N5CCCCC5)CC4)cc13)-c1cc3c(c(=O)n1C2)COC(=O)[C@]3(O)CC [Irinotecan]
Inhibit tumor growth? [2]: No
TGI vs. Control (%) [2]: −12%

NS(=O)(=O)NCCNc1nonc1/C(=N/O)Nc1ccc(F)c(Br)c1 [INCB-024360]
Inhibit tumor growth? ([4]; B16.F10 SC tumors in mice, CRLX101 6 mg/kg IV q7dx2 (Day 5, 12), INCB-024360 100 mg/kg PO bid Day 5-18): did not inhibit tumor growth and No
TGD (Day) ([4]; same dosing, days between control and treated group reaching the tumor volume endpoint): no TGD
TGI vs. Control (%) [4, 6]: 20%

Cn1cc(C[C@@H](N)C(=O)O)c2ccccc21 [Indoximod]
Inhibit tumor growth? ([5]; B16.F10 SC tumors in mice, CRLX101 6 mg/kg IV q7dx2 (Day 7, 14), Indoximod 2 mg/mL in drinking water Day 7-19): did not inhibit tumor growth and No
TGI vs. Control (%) ([5]; same dosing, vs vehicle when the control group reached the tumor volume endpoint (2000 mm^3)): −49%
